What all share (format): cell-based, human
The test system of test [1] is MYB mRNA. The test is described as follows: Splicing RT-qPCR assay, MYB canonical (CJ) and alternative (AJ) junction mRNA. As to conditions: Homo sapiens; for IC50: canonical junction mRNA; for AC50: alternative junction mRNA, read-out: MYB AJ (AC50, increase in AJ mRNA). The method, boiled down: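 Cmpd 24 h, 37 °C/5% CO2; 11-pt 3x serial dilution from 10 uM final; DMSO max 0.25%. Cells: A673 (DMEM/10% FBS, pre-adhered 24 h) or K562 (IMDM/10% FBS). Lyse, DNase I, then 1-step RT-qPCR for CJ and AJ; housekeeping-normalized.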

Test [2] concerns SMN2 mRNA. The test is described as follows: Splicing RT-qPCR panel, SMN2 canonical junction (CJ) mRNA. Particulars: Homo sapiens, read-out: SMN2 CJ (decrease in CJ mRNA levels, IC50). The method, boiled down: (§1)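 A673 cells (DMEM, 10% FBS) or K562 cells (IMDM, 10% FBS) treated 24 h at 37 °C with an 11-point 3-fold dilution, top 10 uM, DMSO ≤0.25%. Canonical-junction mRNA quantified in lysates by RT-qPCR, normalised to GAPDH, GUSB or PPIA and to DMSO (2^−ΔΔCt), then converted to % response.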

In test [3] the test system is Target C mRNA. The test can be described thus: Splicing RT-qPCR panel, Target C canonical junction (CJ) mRNA. As to conditions: Homo sapiens, read-out: Target C CJ (decrease in CJ mRNA levels, IC50). The procedure, abridged: as §1
(In general: In qPCR the cycle at which signal appears reflects the starting amount.)

[4] abbreviates: qPCR panel, read-out: MYB CJ (decrease in CJ mRNA levels, IC50).
[5] abbreviates: RT-qPCR, A673 or K562 cells, 24 hours treatment.
Where [6] appears, read: RT-qPCR, A673 or K562 cells, 24 hours treatment, read-out: MYB CJ (IC50, decrease in CJ mRNA).

Results on twelve compounds are retold here after patent publication US20250326748A1, “COMPOUNDS AND METHODS FOR MODULATING SPLICING” (REMIX THERAPEUTICS INC., priority 2022, published 2025).

Where a name gives a salt, the structure may show the parent alone. Read-outs that look alike come from different tables or passages of the source.

What is called IC50 is the concentration needed to halve the response being measured. In general, AC50 refers to the concentration giving half of the maximal activity seen.

Take `CN(c1cnc2nc(-c3cc4cn(C)nc4c(F)c3O)cc(Cl)c2c1)[C@H]1CCNC1` [Compound 275]: the IC50 in test [1] (setting [4]) is below 100 nM; in test [1] (setting [6]) it was below 100 nM; in test [2], below 100 nM; in test [3] it was 1000 to 10000 nM. For the same compound, the AC50 in test [1] (setting [5]) was below 100 nM.
For the compound `CN(c1cnc2nc(-c3cc4cn(C)nc4c(F)c3O)cc(Cl)c2c1)[C@@H]1CCNC1` [Compound 276], the IC50 is below 100 nM in test [1] (setting [4]), below 100 nM in test [1] (setting [6]), below 100 nM in test [2] and 1000 to 10000 nM in test [3]. The AC50 in test [1] (setting [5]) was below 100 nM.
As for `Cc1c(O)c(-c2ccc3c(Cl)c(N4CCNCC4)cnc3n2)cc2cn(C)nc12` [Compound 278, 5-[5-chloro-6-(piperazin-1-yl)-1,8-naphthyridin-2-yl]-2,7-dimethylindazol-6-ol], the IC50 is below 100 nM in test [1] (setting [4]), below 100 nM in test [1] (setting [6]), below 100 nM in test [2] and 1000 to 10000 nM in test [3]. Further, in test [1] (setting [5]), the AC50 is below 100 nM.
As for `C[C@@H]1CN(c2cnc3nc(-c4cc5cn(C)nc5c(F)c4O)cc(Cl)c3c2)C[C@H](C)N1` [Compound 279], the IC50 in test [1] (setting [4]) was below 100 nM; in test [1] (setting [6]), below 100 nM; in test [2], below 100 nM; in test [3] it was 1000 to 10000 nM. In test [1] (setting [5]), the AC50 is below 100 nM.
For `C[C@H]1CN(c2cnc3nc(-c4cc5cn(C)nc5c(F)c4O)cc(Cl)c3c2)C[C@H](C)N1` [Compound 280], the 50% inhibitory concentration (IC50) in test [1] (setting [4]), in test [1] (setting [6]), in test [2] and in test [3] was below 100 nM in each case. Besides, the AC50 in test [1] (setting [5]) is below 100 nM.
On to `C[C@@H]1CN(c2cnc3nc(-c4cc5cn(C)nc5c(F)c4O)cc(Cl)c3c2)C[C@@H](C)N1` [Compound 281], for which the half-inhibitory concentration (IC50) was below 100 nM in test [1] (setting [4]), below 100 nM in test [1] (setting [6]), below 100 nM in test [2] and 100 to 1000 nM in test [3]. Also, the AC50 in test [1] (setting [5]) is below 100 nM.
As to `CN(c1cnc2nc(-c3cc4cn(C)nc4c(F)c3O)ccc2c1)C1CCNCC1` [Compound 284], the IC50 in test [1] (setting [4]) is 100 to 1000 nM; in test [1] (setting [6]), 100 to 1000 nM; in test [2], below 100 nM; in test [3] it was above 10000 nM. In addition, in test [1] (setting [5]), the concentration at half-maximal activity (AC50) is 100 to 1000 nM.
Take `Cn1cc2cc(-c3ccc4cc(NC5CCNCC5)cnc4n3)c(O)c(F)c2n1` [Compound 285]: the IC50 is 100 to 1000 nM in test [1] (setting [4]), 100 to 1000 nM in test [1] (setting [6]), below 100 nM in test [2] and 1000 to 10000 nM in test [3]. Moreover, the AC50 in test [1] (setting [5]) lay within 100 to 1000 nM.
As for `CN[C@@H]1CCN(c2cnc3nc(-c4cc5cn(C)nc5c(C)c4O)cc(Cl)c3c2)C1` [Compound 286, 5-{4-chloro-6-[(3R)-3-(methylamino)pyrrolidin-1-yl]-1,8-naphthyridin-2-yl}-2,7-dimethylindazol-6-ol hydrochloride], the IC50 in test [1] (setting [4]), in test [1] (setting [6]), in test [2] and in test [3] was below 100 nM in each case. In addition, the AC50 in test [1] (setting [5]) is below 100 nM.
Consider `CN[C@H]1CCN(c2cnc3nc(-c4cc5cn(C)nc5c(C)c4O)cc(Cl)c3c2)C1.Cl` [Compound 287], for which the IC50 is below 100 nM in test [1] (setting [4]), below 100 nM in test [1] (setting [6]), below 100 nM in test [2] and 100 to 1000 nM in test [3]. Further, the half-maximal activity concentration (AC50) in test [1] (setting [5]) is below 100 nM.
With `C[C@H]1CN(c2cnc3nc(-c4cc(F)c5nn(C)cc5c4)cc(Cl)c3c2)C[C@@H](C2CC2)N1` [Compound 288], the IC50 in test [1] (setting [4]) is 100 to 1000 nM; in test [1] (setting [6]) it was 100 to 1000 nM; in test [2], below 100 nM; in test [3], 1000 to 10000 nM. Also, the half-maximal activity concentration (AC50) in test [1] (setting [5]) lay within 100 to 1000 nM.
Turning to `Cc1c(O)c(-c2cc(Cl)c3cc(N(C)[C@@H]4CCNC4)cnc3n2)cc2cn(C)nc12.Cl` [Compound 293], the IC50 in test [1] (setting [4]) was 100 to 1000 nM; in test [1] (setting [6]), 100 to 1000 nM; in test [2], below 100 nM; in test [3] it was 1000 to 10000 nM. In test [1] (setting [5]), the concentration at half-maximal activity (AC50) lay within 100 to 1000 nM.
